{"source": "paper PMC6414200", "about": "“Stepwise activation mechanism of the scramblase nhTMEM16 revealed by cryo-EM” (eLife, 2019)", "biological_target": "T1, nhTMEM16 (Fusarium vanettenii, UniProt C7Z7K1)", "T1 construct": "gene NECHADRAFT_66456; full open reading frame, N-terminal SBP-Myc-3C tag kept for scrambling assay; expressed in S. cerevisiae FGY217, purified in DDM, reconstituted into liposomes; homodimer", "T1 sequence (C7Z7K1 1-735)": "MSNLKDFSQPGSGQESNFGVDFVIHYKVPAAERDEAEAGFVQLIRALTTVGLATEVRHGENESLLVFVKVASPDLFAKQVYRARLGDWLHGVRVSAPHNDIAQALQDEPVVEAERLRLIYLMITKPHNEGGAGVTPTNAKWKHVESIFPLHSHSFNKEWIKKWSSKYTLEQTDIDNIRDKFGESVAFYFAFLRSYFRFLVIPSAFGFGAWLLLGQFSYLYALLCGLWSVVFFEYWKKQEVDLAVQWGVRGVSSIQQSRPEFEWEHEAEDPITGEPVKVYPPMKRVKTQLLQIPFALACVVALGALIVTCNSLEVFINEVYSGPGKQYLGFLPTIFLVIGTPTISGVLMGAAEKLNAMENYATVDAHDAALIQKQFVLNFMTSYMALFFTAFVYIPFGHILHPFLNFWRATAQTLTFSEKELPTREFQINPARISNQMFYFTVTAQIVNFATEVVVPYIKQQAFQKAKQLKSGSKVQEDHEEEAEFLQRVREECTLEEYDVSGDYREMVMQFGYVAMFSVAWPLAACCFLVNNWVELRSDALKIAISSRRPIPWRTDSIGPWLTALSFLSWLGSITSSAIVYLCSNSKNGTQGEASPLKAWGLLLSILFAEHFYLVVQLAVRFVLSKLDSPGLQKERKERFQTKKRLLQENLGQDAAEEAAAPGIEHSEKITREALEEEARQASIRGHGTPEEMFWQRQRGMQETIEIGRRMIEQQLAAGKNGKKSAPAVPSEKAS", "experiment": "proteoliposome scrambling assay, dithionite quenching of NBD fluorescence", "type": "biochemical", "details": "Ca2+-stimulated with basal activity without Ca2+; E. coli polar lipids/egg PC 3:1, pH 7.5, 300 mM KCl; labelled compound; lipid transport (flip-flop)", "data": [{"molecule": "CCCCCCCC/C=C\\CCCCCCCC(=O)OC[C@H](COP(=O)(O)OCCN)OC(=O)CCCCCNc1ccc([N+](=O)[O-])c2nonc12", "note": "[18:1-06:0 NBD-PE]", "values": [{"measurement": "proteoliposome scrambling assay, dithionite quenching of NBD fluorescence", "value": "Traces depict sections of the fluorescence decrease of tail-labeled NBD-PE lipids after addition of dithionite"}]}]}
